Test results: PubChem BioAssay (NCI)
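Briefly, cells in 96-well plates were exposed to five compound concentrations for 48 h, and endpoints were estimated by linear interpolation. Abbreviation: GI50, concentration required for 50% inhibition of growth. TGI is the concentration that stops growth completely.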

Key:
Assay in all cases: NCI anticancer screen, dose series, 48 h
786-0 renal = test system: 786-0 renal
A498 renal = test system: A498 renal
A549 NSCLC = test system: A549 NSCLC
ACHN renal = test system: ACHN renal
BT-549 breast = test system: BT-549 breast
CAKI-1 renal = test system: CAKI-1 renal
CCRF-CEM leukemia = test system: CCRF-CEM leukemia
COLO 205 colon = test system: COLO 205 colon
DU-145 prostate = test system: DU-145 prostate
EKVX NSCLC = test system: EKVX NSCLC
HCC-2998 colon = test system: HCC-2998 colon
HCT-116 colon = test system: HCT-116 colon
HCT-15 colon = test system: HCT-15 colon
HL-60(TB) leukemia = test system: HL-60(TB) leukemia
HOP-62 NSCLC = test system: HOP-62 NSCLC
HOP-92 NSCLC = test system: HOP-92 NSCLC
HS 578T breast = test system: HS 578T breast
HT29 colon = test system: HT29 colon
IGROV1 ovarian = test system: IGROV1 ovarian
K-562 leukemia = test system: K-562 leukemia
KM12 colon = test system: KM12 colon
LOX IMVI melanoma = test system: LOX IMVI melanoma
M14 melanoma = test system: M14 melanoma
MALME-3M melanoma = test system: MALME-3M melanoma
MCF7 breast = test system: MCF7 breast
MDA-MB-231 breast = test system: MDA-MB-231 breast
MDA-MB-435 = test system: MDA-MB-435
MOLT-4 leukemia = test system: MOLT-4 leukemia
NCI-H226 lung = test system: NCI-H226 lung
NCI-H23 lung = test system: NCI-H23 lung
NCI-H460 lung = test system: NCI-H460 lung
NCI-H522 lung = test system: NCI-H522 lung
NCI/ADR-RES ovarian = test system: NCI/ADR-RES ovarian
OVCAR-3 ovarian = test system: OVCAR-3 ovarian
OVCAR-4 ovarian = test system: OVCAR-4 ovarian
OVCAR-5 ovarian = test system: OVCAR-5 ovarian
OVCAR-8 ovarian = test system: OVCAR-8 ovarian
PC-3 prostate = test system: PC-3 prostate
RPMI-8226 leukemia = test system: RPMI-8226 leukemia
RXF 393 renal = test system: RXF 393 renal
SF-268 CNS = test system: SF-268 CNS
SF-295 CNS = test system: SF-295 CNS
SF-539 CNS = test system: SF-539 CNS
SK-MEL-2 melanoma = test system: SK-MEL-2 melanoma
SK-MEL-28 melanoma = test system: SK-MEL-28 melanoma
SK-MEL-5 melanoma = test system: SK-MEL-5 melanoma
SK-OV-3 ovarian = test system: SK-OV-3 ovarian
SN12C renal = test system: SN12C renal
SNB-19 CNS = test system: SNB-19 CNS
SNB-75 CNS = test system: SNB-75 CNS
SR leukemia = test system: SR leukemia
SW-620 colon = test system: SW-620 colon
T-47D breast = test system: T-47D breast
TK-10 renal = test system: TK-10 renal
U251 CNS = test system: U251 CNS
UACC-257 melanoma = test system: UACC-257 melanoma
UACC-62 melanoma = test system: UACC-62 melanoma
UO-31 renal = test system: UO-31 renal

CN1CCN(Cc2ccc(NC(=O)c3cncc(C#Cc4cnc5ccc(OCC(F)F)nn45)c3)cc2C(F)(F)F)CC1
GI50 (786-0 renal): 451 nM
TGI (786-0 renal): 1100 nM
GI50 (A498 renal): 1370 nM
TGI (A498 renal): 2540 nM
GI50 (A549 NSCLC): 221 nM
TGI (A549 NSCLC): 612 nM
GI50 (ACHN renal): 482 nM
TGI (ACHN renal): 1210 nM
GI50 (BT-549 breast): 930 nM
TGI (BT-549 breast): 1690 nM
GI50 (CAKI-1 renal): 473 nM
TGI (CAKI-1 renal): 1390 nM
GI50 (CCRF-CEM leukemia): 192 nM
TGI (CCRF-CEM leukemia): 4310 nM
GI50 (COLO 205 colon): 428 nM
TGI (COLO 205 colon): 1150 nM
GI50 (DU-145 prostate): 339 nM
TGI (DU-145 prostate): 929 nM
GI50 (EKVX NSCLC): 348 nM
TGI (EKVX NSCLC): 1020 nM
GI50 (HCC-2998 colon): 516 nM
TGI (HCC-2998 colon): 1610 nM
GI50 (HCT-116 colon): 164 nM
TGI (HCT-116 colon): 606 nM
GI50 (HCT-15 colon): 207 nM
TGI (HCT-15 colon): 909 nM
GI50 (HL-60(TB) leukemia): 222 nM
TGI (HL-60(TB) leukemia): 724 nM
GI50 (HOP-62 NSCLC): 729 nM
TGI (HOP-62 NSCLC): 1640 nM
GI50 (HOP-92 NSCLC): 101 nM
TGI (HOP-92 NSCLC): 359 nM
GI50 (HS 578T breast): 944 nM
TGI (HS 578T breast): 3200 nM
GI50 (HT29 colon): 282 nM
TGI (HT29 colon): 1000 nM
GI50 (IGROV1 ovarian): 242 nM
TGI (IGROV1 ovarian): 1030 nM
GI50 (K-562 leukemia): 5 nM
TGI (K-562 leukemia): 818 nM
GI50 (KM12 colon): 5 nM
TGI (KM12 colon): 739 nM
GI50 (LOX IMVI melanoma): 235 nM
TGI (LOX IMVI melanoma): 838 nM
GI50 (M14 melanoma): 167 nM
TGI (M14 melanoma): 619 nM
GI50 (MALME-3M melanoma): 120 nM
TGI (MALME-3M melanoma): 485 nM
GI50 (MCF7 breast): 110 nM
TGI (MCF7 breast): 649 nM
GI50 (MDA-MB-231 breast): 181 nM
TGI (MDA-MB-231 breast): 841 nM
GI50 (MDA-MB-435): 218 nM
TGI (MDA-MB-435): 812 nM
GI50 (MOLT-4 leukemia): 299 nM
TGI (MOLT-4 leukemia): 2790 nM
GI50 (NCI-H226 lung): 451 nM
TGI (NCI-H226 lung): 1270 nM
GI50 (NCI-H23 lung): 340 nM
TGI (NCI-H23 lung): 1230 nM
GI50 (NCI-H460 lung): 369 nM
TGI (NCI-H460 lung): 1070 nM
GI50 (NCI-H522 lung): 666 nM
TGI (NCI-H522 lung): 1530 nM
GI50 (NCI/ADR-RES ovarian): 1040 nM
TGI (NCI/ADR-RES ovarian): 5090 nM
GI50 (OVCAR-3 ovarian): 460 nM
TGI (OVCAR-3 ovarian): 1260 nM
GI50 (OVCAR-4 ovarian): 562 nM
TGI (OVCAR-4 ovarian): 1510 nM
GI50 (OVCAR-5 ovarian): 680 nM
TGI (OVCAR-5 ovarian): 1890 nM
GI50 (OVCAR-8 ovarian): 705 nM
TGI (OVCAR-8 ovarian): 1560 nM
GI50 (PC-3 prostate): 457 nM
TGI (PC-3 prostate): 1970 nM
GI50 (RPMI-8226 leukemia): 515 nM
TGI (RPMI-8226 leukemia): 2180 nM
GI50 (RXF 393 renal): 379 nM
TGI (RXF 393 renal): 1060 nM
GI50 (SF-268 CNS): 520 nM
TGI (SF-268 CNS): 1430 nM
GI50 (SF-295 CNS): 387 nM
TGI (SF-295 CNS): 1200 nM
GI50 (SF-539 CNS): 438 nM
TGI (SF-539 CNS): 1100 nM
GI50 (SK-MEL-2 melanoma): 600 nM
TGI (SK-MEL-2 melanoma): 1280 nM
GI50 (SK-MEL-28 melanoma): 670 nM
TGI (SK-MEL-28 melanoma): 1520 nM
GI50 (SK-MEL-5 melanoma): 511 nM
TGI (SK-MEL-5 melanoma): 1220 nM
GI50 (SK-OV-3 ovarian): 1510 nM
TGI (SK-OV-3 ovarian): 3780 nM
GI50 (SN12C renal): 500 nM
TGI (SN12C renal): 1170 nM
GI50 (SNB-19 CNS): 1090 nM
TGI (SNB-19 CNS): 2850 nM
GI50 (SNB-75 CNS): 580 nM
TGI (SNB-75 CNS): 1260 nM
GI50 (SR leukemia): 206 nM
TGI (SR leukemia): 1100 nM
GI50 (SW-620 colon): 275 nM
TGI (SW-620 colon): 1200 nM
GI50 (T-47D breast): 419 nM
TGI (T-47D breast): 1170 nM
GI50 (TK-10 renal): 749 nM
TGI (TK-10 renal): 1460 nM
GI50 (U251 CNS): 646 nM
TGI (U251 CNS): 1340 nM
GI50 (UACC-257 melanoma): 282 nM
TGI (UACC-257 melanoma): 963 nM
GI50 (UACC-62 melanoma): 630 nM
TGI (UACC-62 melanoma): 1330 nM
GI50 (UO-31 renal): 571 nM
TGI (UO-31 renal): 1200 nM
